Measurements: the supplement of paper PMC13380429

Columns and labels:
Conditions in all cases: 72 h
[1] = tested on: HepG2; experiment: drug sensitivity score (DSS) for viability; higher = more toxic; extreme values may be limits of the assay
[2] = tested on: U2OS; experiment: as above
[3] = tested on: Caco-2; experiment: as above
[4] = tested on: Calu-3; experiment: as above
[5] = tested on: Vero E6; experiment: as above
[6] = tested on: HepG2; experiment: relative viability EC50 (midpoint between 100% and the lowest measured viability); higher = less toxic
[7] = tested on: Vero E6; experiment: as above
[8] = tested on: HepG2; experiment: cell viability relative to DMSO; higher = less toxic
[9] = tested on: U2OS; experiment: as above
[10] = tested on: Caco-2; experiment: as above
[11] = tested on: Calu-3; experiment: as above
[12] = tested on: Vero E6; experiment: as above
[13] = tested on: U2OS; experiment: relative viability EC50 (midpoint between 100% and the lowest measured viability); higher = less toxic
[14] = tested on: Caco-2; experiment: as above

SMILES | drug sensitivity score [1] | drug sensitivity score [2] | drug sensitivity score [3] | drug sensitivity score [4] | drug sensitivity score [5] | relative viability EC50 [6] [µM] | relative viability EC50 [7] [µM] | cell viability ([8]; 1 nM) [%] | cell viability ([8]; 10 nM) [%] | cell viability ([8]; 100 nM) [%] | cell viability ([8]; 1000 nM) [%] | cell viability ([8]; 10000 nM) [%] | cell viability ([9]; 1 nM) [%] | cell viability ([9]; 10 nM) [%] | cell viability ([9]; 100 nM) [%] | cell viability ([9]; 1000 nM) [%] | cell viability ([9]; 10000 nM) [%] | cell viability ([10]; 1 nM) [%] | cell viability ([10]; 10 nM) [%] | cell viability ([10]; 100 nM) [%] | cell viability ([10]; 1000 nM) [%] | cell viability ([10]; 10000 nM) [%] | cell viability ([11]; 1 nM) [%] | cell viability ([11]; 10 nM) [%] | cell viability ([11]; 100 nM) [%] | cell viability ([11]; 1000 nM) [%] | cell viability ([11]; 10000 nM) [%] | cell viability ([12]; 1 nM) [%] | cell viability ([12]; 10 nM) [%] | cell viability ([12]; 100 nM) [%] | cell viability ([12]; 1000 nM) [%] | cell viability ([12]; 10000 nM) [%] | relative viability EC50 [13] [µM] | relative viability EC50 [14] [µM]
CC(C)CNc1ccnc(NCc2csc(-c3ccccc3)n2)n1 [KHS-101] | 6.9 | 1.6 | 4.6 | 3.2 | 0.7 | 1.92 | > 10 | 104 | 102 | 95.3 | 86.4 | 16.4 | 99.9 | 97.9 | 102 | 97 | 72.9 | 91.3 | 103 | 98.1 | 85.2 | 53.3 | 94.1 | 91.6 | 101 | 89.3 | 64.8 | 103 | 99 | 103 | 101 | 78.1 | – | –
O=C(NCC(=O)N1CC[C@H](N[C@H]2CC[C@@](O)(c3ccc(-c4ncccn4)cn3)CC2)C1)c1cccc(C(F)(F)F)c1 | 0 | 0 | 0 | – | 0 | > 10 | > 10 | 103 | 97.6 | 105 | 97.4 | 100 | 97.8 | 105 | 97.7 | 101 | 96.4 | 104 | 108 | 92.7 | 92.7 | 96.8 | – | – | – | – | – | 107 | 102 | 101 | 99.4 | 98.7 | > 10 | > 10
N=C(Nc1ccccc1)Nc1ccccc1 [diphenylguanidine] | 0 | 0 | 0 | – | 0 | > 10 | > 10 | 117 | 92.6 | 103 | 101 | 101 | 98.4 | 98 | 95.3 | 100 | 106 | 92.4 | 93.5 | 91.5 | 94.2 | 107 | – | – | – | – | – | 100 | 95.1 | 103 | 91.8 | 104 | > 10 | > 10
CCN(CC)CCNC(=O)c1cc(Cl)c(N)cc1OC [metoclopramide] | 0 | 0 | – | 0 | 0 | – | – | – | – | – | – | – | – | – | – | – | – | – | – | – | – | – | – | – | – | – | – | – | – | – | – | – | – | –
Cn1nc(-c2cccc(F)c2)n(C)c1=S [suritozole] | 0 | 0 | 0 | – | 0 | > 10 | > 10 | 108 | 99.4 | 98.2 | 106 | 97 | 98.9 | 101 | 99.7 | 103 | 96 | 93.6 | 97.5 | 102 | 96 | 90.1 | – | – | – | – | – | 102 | 101 | 99.4 | 94.5 | 98.4 | > 10 | > 10
CC(O)c1cc(C(=O)N[C@@H](C)Cn2ccc(-c3ccc(C#N)c(Cl)c3)n2)n[nH]1 (stereo not given in full) [ODM-201] | 0 | 0 | 0 | – | 0 | > 10 | > 10 | 88.1 | 111 | 92.6 | 112 | 105 | 98.3 | 98.2 | 103 | 93.4 | 111 | 104 | 89.8 | 102 | 106 | 103 | – | – | – | – | – | 95.6 | 101 | 93.1 | 94.5 | 103 | > 10 | > 10
O=C(O)CCCCC(=O)O [adipic-acid] | 0 | 0 | 0 | – | 0 | > 10 | > 10 | 104 | 108 | 94.4 | 97.4 | 105 | 102 | 96.7 | 99.6 | 103 | 104 | 89 | 87 | 95.1 | 96.6 | 105 | – | – | – | – | – | 94.9 | 99.9 | 89.3 | 93.1 | 102 | > 10 | > 10
CC1(C)CCC(C)(C)c2cc(Cn3cccn3)c(/C=C/c3ccc(C(=O)O)cc3)cc21 [palovarotene] | 0 | 0 | 0 | – | 0 | > 10 | > 10 | 95.4 | 99.7 | 103 | 113 | 99.4 | 105 | 99.6 | 102 | 94 | 94.8 | 107 | 93.7 | 94.8 | 96 | 92.9 | – | – | – | – | – | 100 | 104 | 100 | 106 | 98.3 | > 10 | > 10
CN(C)C(=S)SC(=S)N(C)C [tetramethylthiuram-monosulfide] | 11.3 | 5.7 | – | 8.4 | 8.1 | – | – | – | – | – | – | – | – | – | – | – | – | – | – | – | – | – | – | – | – | – | – | – | – | – | – | – | – | –
Cc1c(Cl)cccc1S(=O)(=O)Nc1nc(NCCc2ccccc2)nc2c1CN(Cc1ccccc1)CC2 [CaMKII-IN-1] | 0 | 0 | 0.3 | – | 0 | > 10 | > 10 | 88.3 | 97.1 | 90.6 | 101 | 93.6 | 102 | 102 | 105 | 98.9 | 88.7 | 98.9 | 96.1 | 93 | 102 | 83.1 | – | – | – | – | – | 95.3 | 104 | 98.2 | 97.7 | 108 | > 10 | > 10
CCCCCCCN(CC)CCC[C@@H](O)c1ccc(NS(C)(=O)=O)cc1 (racemic) [ibutilide] | 0 | 0 | – | 0 | 0 | – | – | – | – | – | – | – | – | – | – | – | – | – | – | – | – | – | – | – | – | – | – | – | – | – | – | – | – | –
C[C@H](Nc1ncnc2[nH]cnc12)c1nc2ccc(F)cc2c(=O)n1-c1ccccc1 [acalisib] | 0.9 | 0 | 0.9 | 2.7 | 1.5 | > 10 | > 10 | 106 | 107 | 109 | 93.7 | 83.6 | 109 | 104 | 106 | 99.4 | 94.3 | 105 | 104 | 91.6 | 102 | 74.9 | 107 | 103 | 104 | 93.8 | 65.1 | 104 | 101 | 95.8 | 89.9 | 76.2 | > 10 | –
C[C@]12CCC(=O)C=C1CC[C@@H]1[C@@H]2[C@@H](O)C[C@@]2(C)[C@H]1CC[C@]2(O)C(=O)CO [hydrocortisone] | 2.9 | 0 | – | 0 | 0 | – | – | – | – | – | – | – | – | – | – | – | – | – | – | – | – | – | – | – | – | – | – | – | – | – | – | – | – | –
CC(C)NCC(O)c1ccccc1Cl (stereo not given) [clorprenaline] | 0 | 0 | 0 | – | 0 | > 10 | > 10 | 101 | 102 | 93.4 | 97.3 | 113 | 94 | 103 | 95.6 | 102 | 103 | 99.7 | 104 | 94.7 | 93.7 | 102 | – | – | – | – | – | 99.8 | 95 | 99.8 | 99.6 | 106 | > 10 | > 10
CNC(=O)c1ccc(C)c(-n2c(C)cc(OCc3ccc(F)cc3F)c(Br)c2=O)c1 | 1.5 | 3.1 | 3.1 | 5.2 | 5 | – | – | 111 | 104 | 106 | 99.7 | 67.7 | 101 | 99.2 | 90.2 | 81.9 | 78.7 | 90.9 | 95.3 | 93 | 79.6 | 75.4 | 94.7 | 92.6 | 74 | 93.6 | 56.8 | 98.7 | 92 | 85.5 | 82.3 | 58.8 | > 10 | > 10
CCCCC/C=C\C/C=C\C/C=C\CCCCC(=O)O [gamma-linolenic-acid] | 0 | 0 | 0 | – | 0 | > 10 | > 10 | 107 | 115 | 94.8 | 99.2 | 107 | 106 | 106 | 98.9 | 103 | 103 | 97.9 | 103 | 102 | 116 | 94 | – | – | – | – | – | 98.2 | 103 | 97.2 | 103 | 100 | > 10 | > 10
Cc1ccc(/C=N/NC(=O)c2ccccc2Oc2ccccc2)o1 | 0 | 0 | 0.1 | – | 0 | > 10 | > 10 | 103 | 103 | 91.7 | 94.2 | 102 | 106 | 97.3 | 98.1 | 93 | 98.6 | 96 | 99.6 | 100 | 95.2 | 88.7 | – | – | – | – | – | 97 | 101 | 98.9 | 95.6 | 93.7 | > 10 | > 10
C[C@H](Nc1ncnc2nc[nH]c12)c1cc2cccc(Cl)c2c(=O)n1-c1ccccc1 [duvelisib] | 3 | 1.7 | 4.1 | 3.8 | 1.4 | – | > 10 | 91.8 | 96.5 | 97.9 | 89.5 | 65.9 | 99.4 | 92.2 | 96.1 | 88.6 | 75.5 | 99.8 | 95.4 | 91.7 | 84.1 | 52.5 | 98.6 | 102 | 101 | 88.9 | 58.6 | 105 | 101 | 94.9 | 91.8 | 76.3 | > 10 | –
